Test results taken from the NIST ThermoML archive (doi:10.1016/j.fluid.2014.06.021).
Numbers after ± are expanded uncertainties.

Experiment: activity coefficient (dimensionless); of the first substance listed, at infinite dilution; xn = mol fraction of the nth substance listed
Settings: 101.33 kPa, Liquid, Chromatography, x1 = 0

Structure (SMILES) | activity coefficient (323.15 K) | activity coefficient (333.15 K) | activity coefficient (343.15 K)
Cc1ccccc1C [1,2-dimethylbenzene] + C[n+]1ccn(CCCCS(=O)(=O)O)c1.O=S(=O)([N-]S(=O)(=O)C(F)(F)F)C(F)(F)F | 4.39 ± 0.3 | 4.64 ± 0.32 | 4.8 ± 0.3
Cc1ccccc1C [1,2-dimethylbenzene] + C[n+]1ccn(CCCCS(=O)(=O)O)c1.O=S(=O)([O-])C(F)(F)F | 8.26 ± 0.56 | 8.21 ± 0.56 | 7.97 ± 0.54
Cc1ccccc1C [1,2-dimethylbenzene] + C[n+]1ccn(CCCCS(=O)(=O)O)c1.O=S(=O)([O-])O | 43.8 ± 3 | 41.3 ± 2.8 | 40.8 ± 2.8
Cc1cccc(C)c1 [1,3-dimethylbenzene] + C[n+]1ccn(CCCCS(=O)(=O)O)c1.O=S(=O)([N-]S(=O)(=O)C(F)(F)F)C(F)(F)F | 5.19 ± 0.35 | 5.49 ± 0.37 | 5.57 ± 0.38
Cc1cccc(C)c1 [1,3-dimethylbenzene] + C[n+]1ccn(CCCCS(=O)(=O)O)c1.O=S(=O)([O-])C(F)(F)F | 10.4 ± 0.71 | 10.1 ± 0.7 | 9.84 ± 0.67
Cc1cccc(C)c1 [1,3-dimethylbenzene] + C[n+]1ccn(CCCCS(=O)(=O)O)c1.O=S(=O)([O-])O | 62.8 ± 4.3 | 55.4 ± 3.8 | 54.5 ± 3.7
Cc1ccc(C)cc1 [1,4-dimethylbenzene] + C[n+]1ccn(CCCCS(=O)(=O)O)c1.O=S(=O)([N-]S(=O)(=O)C(F)(F)F)C(F)(F)F | 5.11 ± 0.35 | 5.47 ± 0.37 | 5.55 ± 0.38
Cc1ccc(C)cc1 [1,4-dimethylbenzene] + C[n+]1ccn(CCCCS(=O)(=O)O)c1.O=S(=O)([O-])C(F)(F)F | 10.1 ± 0.69 | 9.86 ± 0.67 | 9.52 ± 0.65
Cc1ccc(C)cc1 [1,4-dimethylbenzene] + C[n+]1ccn(CCCCS(=O)(=O)O)c1.O=S(=O)([O-])O | 56.6 ± 3.9 | 54.4 ± 3.7 | 50.6 ± 3.5
C#CCCCCC [1-heptyne] + C[n+]1ccn(CCCCS(=O)(=O)O)c1.O=S(=O)([O-])C(F)(F)F | 25.9 ± 1.8 | 25.7 ± 1.8 | 24.8 ± 1.7
C#CCCCC [1-hexyne] + C[n+]1ccn(CCCCS(=O)(=O)O)c1.O=S(=O)([O-])C(F)(F)F | 15.5 ± 1.1 | 14.4 ± 0.99 | 13.5 ± 0.92
CCC[N+](=O)[O-] [1-nitropropane] + C[n+]1ccn(CCCCS(=O)(=O)O)c1.O=S(=O)([N-]S(=O)(=O)C(F)(F)F)C(F)(F)F | 1.17 ± 0.07 | 1.17 ± 0.07 | 1.18 ± 0.08
CCC[N+](=O)[O-] [1-nitropropane] + C[n+]1ccn(CCCCS(=O)(=O)O)c1.O=S(=O)([O-])C(F)(F)F | 1.84 ± 0.12 | 1.8 ± 0.12 | 1.77 ± 0.12
CCC[N+](=O)[O-] [1-nitropropane] + C[n+]1ccn(CCCCS(=O)(=O)O)c1.O=S(=O)([O-])O | 7.05 ± 0.48 | 6.92 ± 0.47 | 6.82 ± 0.46
CC(C)CO [2-methyl-1-propanol] + C[n+]1ccn(CCCCS(=O)(=O)O)c1.O=S(=O)([N-]S(=O)(=O)C(F)(F)F)C(F)(F)F |  | 0.22 ± 0.03 | 0.26 ± 0.03
CC#N [acetonitrile] + C[n+]1ccn(CCCCS(=O)(=O)O)c1.O=S(=O)([N-]S(=O)(=O)C(F)(F)F)C(F)(F)F | 0.4 ± 0.1 | 0.42 ± 0.04 | 0.45 ± 0.04
CC#N [acetonitrile] + C[n+]1ccn(CCCCS(=O)(=O)O)c1.O=S(=O)([O-])C(F)(F)F | 0.68 ± 0.05 | 0.67 ± 0.05 | 0.68 ± 0.05
CC#N [acetonitrile] + C[n+]1ccn(CCCCS(=O)(=O)O)c1.O=S(=O)([O-])O | 1.74 ± 0.12 | 1.73 ± 0.12 | 1.73 ± 0.12
c1ccccc1 [benzene] + C[n+]1ccn(CCCCS(=O)(=O)O)c1.O=S(=O)([N-]S(=O)(=O)C(F)(F)F)C(F)(F)F | 1.95 ± 0.13 | 2.07 ± 0.14 | 2.15 ± 0.15
c1ccccc1 [benzene] + C[n+]1ccn(CCCCS(=O)(=O)O)c1.O=S(=O)([O-])C(F)(F)F | 3.36 ± 0.23 | 3.29 ± 0.22 | 3.2 ± 0.2
c1ccccc1 [benzene] + C[n+]1ccn(CCCCS(=O)(=O)O)c1.O=S(=O)([O-])O | 14.4 ± 0.98 | 12.5 ± 0.85 | 12.2 ± 0.83
CCCCO [butan-1-ol] + C[n+]1ccn(CCCCS(=O)(=O)O)c1.O=S(=O)([N-]S(=O)(=O)C(F)(F)F)C(F)(F)F |  | 0.19 ± 0.03 | 0.23 ± 0.03
CCC(C)=O [butanone] + C[n+]1ccn(CCCCS(=O)(=O)O)c1.O=S(=O)([N-]S(=O)(=O)C(F)(F)F)C(F)(F)F | 0.24 ± 0.03 | 0.27 ± 0.03 | 0.3 ± 0.1
CCC(C)=O [butanone] + C[n+]1ccn(CCCCS(=O)(=O)O)c1.O=S(=O)([O-])C(F)(F)F | 1.06 ± 0.07 | 1 ± 0.06 | 0.96 ± 0.06
